Read-outs that look alike come from different tables or passages of the source.
What was measured:
[1] = Various In Vitro Cell Biology Assays (Example 41, Tables 23-26); type: cell-based; settings: 3×10^−6 M; for inhibition at 3 µM: PBMC, read-out: % Inhibition of Control Values
Description: In each experiment, the respective reference compound was tested concurrently with the test compounds in order to assess the assay suitability. It was tested at several concentrations (for IC50 value determination).
The test compounds were assayed at 3×10^−6 M.
Results. The results are expressed as a percent of control values and as a percent inhibition of control values obtained in the presence of the test compounds.
The IC50 values (concentration causing a half-maximal inhibition of control values) and Hill coefficients (nH) were determined by non-linear regression analysis of the inhibition curves using Hill equation curve fitting, a summary of the data is shown in Table 26. The IC50 value for each reference compound is indicated was determined (data not shown) and was within accepted limits of the historic average ±0.5 log units.

[2] = tested on: chronic colitis provoked by trinitrobenzene sulphonic acid (TNBS); experiment: Rat model of chronic colitis provoked by TNBS over 14 days, treatment from Day 1; type: in vivo; settings: for macroscopic Damage Score / reduction in colon weight / reduction in colonic MPO activity / reduction in colonic TNF-α levels / reduction in colonic lesion area (% of the total area measured): Day 14; for reduction in colon weight / reduction in colonic MPO activity / reduction in colonic TNF-α levels / reduction in colonic lesion area (% of the total area measured) / attenuation of TNBS-induced fall in body weight (% change of body weight at Day −1): vs CMC group; for attenuation of TNBS-induced fall in body weight (% change of body weight at Day −1): over 14 days
Description: In the chronic model of colitis, assessment of the colonic inflammation is made 14 days or longer, after the intracolonic challenge with TNBS (Boughton-Smith et al, 1988a, 1988b; Wallace et al, 1989; Rachmilewitz et al, 1989; Wallace and Keenan, 1990; Ameho et al, 1987; Sans et al, 1999; Sun et al, 2001; Maric et al, 2003; Moreels et al, 2004; Gonzalez et al, 2004). This model allows treatment with experimental agents to commence following the establishment of the colonic injury, typically 24 hours after the TNBS challenge (Galvez et al, 2000, Villegas, 2003, Gonzalez et al, 2004). The model should therefore identify the ability of the experimental compounds to accelerate the diminution of the inflammatory response and to promote healing of the colonic lesions. This model thus has relevance additional to the acute model, as the clinical correlate is the therapeutic intervention in patients with existing IBD not in remission or with flare-up, to reduce the crisis. This contrasts with the acute TNBS model where the compounds are administered one or two days prior to challenge, the clinical correlate being the use of prophylactic therapy to prevent flare-up and maintain remission in IBD patients.
In this current study, the low intracolonic challenge concentration of TNBS used in the acute studies was also used for the chronic study over a 14 day period. This concentration and timing was based on the findings from pilot studies where a range of concentrations of TNBS and treatment conditions were evaluated over a 14 day period. […].
The methods and protocol used were substantially similar to those in Example 39-40, with some differences described below.
TNBS Challenge. Male Wistar rats (average body weight, 210 g) were randomised into groups before commencement of the study. In all groups, including the non-challenged and non-treated absolute control group, food was withdrawn for 12 h before TNBS administration (i.e. overnight on Day −1), but the rats were allowed free access to drinking water.
On the morning of the day of challenge (Day 0, between 9.00 and 1 1.00 a.m.), the rats were transiently anaesthetised with ether and the TNBS solution (10 mg in 0.25 ml of 50% ethanol) was instilled approximately 6-8 cm into the colon using a soft plastic catheter inserted in the rat rectum. The rats were allowed to recover with free access to food and drinking water. At the end of the experiment, on the morning of Day 14, between 9.00 and 11.00), the colon was dissected, and the distal 8 cm photographed and immediately processed or stored appropriately for subsequent analyses.
The following primary parameters were measured in the study: macroscopic scoring of distal 8 cm of colon; myeloperoxidase levels in segments of distal 8 cm of colon; TNF-α levels in segments of distal 8 cm of colon.
In addition, the weight of the standard colonic segment was assessed as an indirect and non-specific marker of oedema. The body weight of the animals was also determined each evening of the study, starting on Day-1, and also on the morning of Day 14. The data is shown graphically as the % change from the weight on Day-1, prior to challenge.
Treatments. The TNBS challenged groups for study were: (a) Vehicle control 0.5% carboxy methyl cellulose (CMC) p.o., twice daily from Day; (b) CCI-7506 25 mg/kg, p.o., twice daily from Day 1 (50 mg/kg/day total); (c) CCI-7506 50 mg/kg, p.o., twice daily from Day 1 (100 mg/kg/day total); (d) CCI-7507 12.5 mg/kg, p.o., twice daily from Day 1 (25 mg/kg/day total); (e) CCI-7507 25 mg/kg, p.o., twice daily from Day 1(50 mg/kg/day total); […]; (g) Infliximab 3 mg/kg, single slow i.v. injection, on Day 1 and Day7.
The experimental compounds that were administered orally were given twice a day from Day 1, i.e. 24 h following TNBS administration, for the remainder of the 14 day experimental period. Infliximab was administered by slow i.v. injection of Day 1 and on Day 7. […]

[3] = IL-6 secretion (h) (PBMC), LPS 1 μg/ml, 24 h
[4] = 48 h, IL-2 secretion (h) (PBMC), PHA 20 μg/ml, 48 h
[5] = 48 h, IL-4 secretion (h) (PBMC), ConA 20 μg/ml, 48 h
[6] = 24 h, IFN-γ secretion (h) (PBMC), PHA 2 μg/ml, 24 h
[7] = 24 h, IL-1 □ secretion (h) (PBMC), LPS 1 μg/ml, 24 h

SMILES: OB(O)CCCCCn1c(-c2cscn2)nc2ccccc21 [CCI-7034]
- % Inhibition of Control Values [1, 3]: −89%
- inhibition at 3 µM ([1]; 24 h, IL-8 secretion (h) (PBMC), LPS 1 μg/ml, 24 h): -32%
- inhibition at 3 µM ([1]; 48 h, IL-10 secretion (h) (PBMC), PHA 3 μg/ml, 48 h): 42%
- cytotoxicity at 24 h ([1]; human, Cell viability (h) (PBMC/24 h), MTT): -9%

SMILES: N#Cc1ncnc2c1ncn2CCCCCB(O)O [CCI-7048]
- inhibition at 3 µM [1, 4]: 23%
- inhibition at 3 µM [1, 5]: -45%

SMILES: N#Cc1ccc2c(ccn2CCCCCB(O)O)c1 [CCI-7506]
- macroscopic Damage Score ([2]; 50 mg/kg/day p.o. from Day 1): reduced the damage score
- reduction in colon weight ([2]; 50 mg/kg/day p.o. from Day 1): caused a significant reduction in the colon weight
- reduction in colonic MPO activity ([2]; 50 mg/kg/day p.o. from Day 1): caused a significant fall in the elevated MPO activity
- reduction in colonic TNF-α levels ([2]; 50 mg/kg/day p.o. from Day 1): no significant effect on the colonic TNF-α levels
- reduction in colonic lesion area (% of the total area measured) ([2]; 50 mg/kg/day p.o. from Day 1): statistically significant for both doses
- attenuation of TNBS-induced fall in body weight (% change of body weight at Day −1) ([2]; 50 mg/kg/day p.o. in divided doses from Day 1): significantly different from those in the challenged CMC control group on Days 2 to 10 and also on Days 13 and 14
- macroscopic Damage Score ([2]; 100 mg/kg/day p.o. from Day 1): reduced the damage score
- reduction in colon weight ([2]; 100 mg/kg/day p.o. from Day 1): caused a significant reduction in the colon weight
- reduction in colonic MPO activity ([2]; 100 mg/kg/day p.o. from Day 1): caused a significant fall in the elevated MPO activity
- reduction in colonic TNF-α levels ([2]; 100 mg/kg/day p.o. from Day 1): did achieve significance
- reduction in colonic lesion area (% of the total area measured) ([2]; 100 mg/kg/day p.o. from Day 1): statistically significant for both doses
- attenuation of TNBS-induced fall in body weight (% change of body weight at Day −1) ([2]; 100 mg/kg/day p.o. in divided doses from Day 1): significantly different from the CMC group on Days 2, 3 and 4

SMILES: OB(O)CCCCCn1c(-c2cscn2)nc2ccccc21 [drawing 69]
- inhibition at 3 µM [1, 6]: 21%

SMILES: N#Cc1ccc2c(ccn2CCCCCB(O)O)c1 [drawing 70]
- inhibition at 3 µM [1, 6]: 16%

SMILES: OB(O)CCCCn1c(C(F)(F)F)nc2ccccc21 [drawing 71]
- inhibition at 3 µM [1, 6]: -6%

SMILES: C[C@@H]1CC2C3CCC4=CC(=O)C=CC4(C)C3(F)[C@@H](O)CC2(C)C1(O)C(=O)CO (some centres unmarked) [drawing 72]
- inhibition at 3 µM [1, 6]: 68%

SMILES: Nc1nc(Cl)c2ncn(CCCCCB(O)O)c2n1 [drawing 73]
- inhibition at 3 µM [1, 6]: 56%

SMILES: N#Cc1ncnc2c1ncn2CCCCCB(O)O [drawing 74]
- inhibition at 3 µM [1, 6]: 14%

SMILES: OB(O)CCCCCn1c(-c2cscn2)nc2ccccc21 [drawing 75]
- inhibition at 3 µM [1, 7]: -67%

SMILES: C[C@@H]1CC2C3CCC4=CC(=O)C=CC4(C)C3(F)[C@@H](O)CC2(C)C1(O)C(=O)CO (some centres unmarked) [drawing 78]
- inhibition at 3 µM [1, 7]: -12%

SMILES: N#Cc1ncnc2c1ncn2CCCCCB(O)O [drawing 79]
- inhibition at 3 µM [1, 7]: -66%

SMILES: OB(O)CCCCCn1c(-c2cscn2)nc2ccccc21 [drawing 81]
- inhibition at 3 µM [1, 4]: 56%

SMILES: OB(O)CCCCn1c(C(F)(F)F)nc2ccccc21 [drawing 82]
- inhibition at 3 µM [1, 4]: 72%

SMILES: C[C@@H]1CC2C3CCC4=CC(=O)C=CC4(C)C3(F)[C@@H](O)CC2(C)C1(O)C(=O)CO (some centres unmarked) [drawing 83]
- inhibition at 3 µM [1, 4]: 18%

SMILES: Nc1nc(Cl)c2ncn(CCCCCB(O)O)c2n1 [drawing 84]
- inhibition at 3 µM [1, 4]: 78%

SMILES: C[C@@H]1CC2C3CCC4=CC(=O)C=CC4(C)C3(F)[C@@H](O)CC2(C)C1(O)C(=O)CO (some centres unmarked) [drawing 88]
- inhibition at 3 µM [1, 5]: 118%

SMILES: Nc1nc(Cl)c2ncn(CCCCCB(O)O)c2n1 [drawing 89]
- inhibition at 3 µM [1, 5]: -30%

SMILES: OB(O)CCCCCn1c(-c2cscn2)nc2ccccc21 [drawing 90]
- % Inhibition of Control Values [1, 3]: −61%

SMILES: OB(O)CCCCn1c(C(F)(F)F)nc2ccccc21 [drawing 91]
- inhibition at 3 µM ([1]; 24 h, IL-6 secretion (h) (PBMC), LPS 1 μg/ml, 24 h): -26%

— patent US20090264384A1, “INDOLE, BENZIMIDAZOLE, AND BENZOLACTAM BORONIC ACID COMPOUNDS, ANALOGS THEREOF AND METHODS OF USE THEREOF” (Nuada, Inc., priority 2004, published 2009)
